Key:
[1] = system: mouse E18 hippocampal neurons; assay: Immunocytochemistry of neuronal markers; assay type: cell-based; details: 1 μM, 5 days, vs vehicle
Procedure: For recovering proteins, cells were seeded in 6-well dishes coated with poly-D-lysine (SigmaAldrich, St. Louis, Mo., USA), 50 μg/ml for an overnight, at a density of 1×10^6 cells/well. For immunocytochemistry, cells were seeded onto 5 mm cover slips coated with poly-D-lysine at a density of 7×10^4 cells/well in 100 μl Defined Medium in 96 well plates. The cells were cultured for four days in vitro prior to the beginning of the treatment with the peptides. The treatment with the peptides was done for five days (starting at DIV 4 and finishing at DIV 9). The culture medium was exchanged completely at the beginning of the treatment with a test peptide (at DIV4), and every 72 h until DIV 9.
After 5 days of treatment, cells seeded on cover slips were fixed in 4% paraformaldehyde (Electron Microscopy Sciences, PA, USA) for 30 min at room temperature, and then washed 2× in PBS for storage at 4° C. prior to staining. Cells were permeabilized in 0.2% Triton-X-100 in PBS for 30 min at 25° C. and incubated in blocking buffer (1% BSA w/v, 0.2% Triton-X-100 v/v in PBS) for 60 min at 25° C. The cells were then incubated with primary antibodies at the appropriate dilutions in blocking buffer at 4° C. for 16 h, washed 3×10 min with 0.2% Triton X100 in PBS, and incubated with fluorescently-labeled secondary antibodies diluted in blocking buffer for 1 h at 25° C. in the dark. Cover slips were washed 3×10 min in 0.2% Triton X-100 in PBS and mounted on glass slides with GelMount (Biomeda, Foster City, Calif., USA). The following primary antibodies were used: rabbit polyclonal anti-GFAP (1:500; Sigma-Aldrich, St. Louis, Mo., USA); rabbit polyclonal anti-NFM (1:200; Chemicon/Millipore, Billerica, Mass., USA); mouse monoclonal anti-NeuN (1:300; Millipore, Billerica, Mass., USA); rabbit polyclonal anti-Tuj-1, 0—III-tubulin (1:800; Covance, Emeryville, Calif., USA); mouse monoclonal SMI 52 to the adult isoforms of MAP-2, MAP2a,b (1:1000; Covance, Emeryville, Calif., USA); rabbit polyclonal anti-synapsin I (1:2000; Stressgen, Farmingdale, N.Y., USA); and rabbit monoclonal anti-PSD95 (1:100; Cell Signaling, Danvers, Mass., USA). Secondary goat anti-mouse and anti-rabbit IgGs conjugated with AlexaFluor 594 were used at 1:1000 (Molecular Probes, Carlsbad, Calif., USA). The nuclei were stained with 1 μM TOPRO in PBS (Invitrogen, Grand Island, N.Y., USA). Mounted cover slips were examined using 40× oil immersion objective of a Nikon 90i fluorescent microscope equipped with Nikon C1 three-laser confocal system and a Nikon DS U1 digital camera, and analyzed with EZ-C1 Viewer Image software, Version 6.0. […]

[2] = system: mouse E18 primary hippocampal neurons; assay: Toxicity of the peptides: phase contrast morphology and LDH assay, 5 days treatment; assay type: cell-based
From the text: To screen these peptides, primary neuronal cell cultures were used from embryonic day 18 (E18) C57BL/6 mouse hippocampus. At the fourth day in vitro (DIV), the culture medium was exchanged with the medium containing the peptides. The primary neuronal cultures were established as taught in the art (see, e.g., Cardenas-Aguayo Mdel, Santa-Olalla et al. 2003, hereby incorporate by reference). Briefly, C57BL/6 time pregnant E18 female mice from Charles River Labs were anesthetized and killed by cervical dislocation following our Institutional Animal Care and Use Committee (IACUC) regulations and approved protocol. Embryos were removed and placed in cold Hibernate A (available from Brain bits, Springfield, Ill., USA), and all of the following steps were performed in ice-cold Hibernate A, under a stereoscopic (dissection) microscope placed in a laminar flow hood. Fetal brains were removed carefully and fore brain were separated. Then, the hippocampus, including the cortex surrounding the area of the hippocampus, was dissected and cut into small pieces using microsurgical scissors. The cut tissue was transferred with number 5 forceps to 15 ml tubes containing 0.1% trypsin in Versene (Invitrogen Life Technologies, Grand Island, N.Y., USA) and incubated for 15 min at 37° C. followed by inactivation with 10% fetal bovine serum (FBS) in Neurobasal complete medium (Neurobasal Medium supplemented with 2×B-27, 0.30% glutamine, and penicillin/streptomycin 0.1 mg/ml and 0.1 U/ml respectively). All medium components were purchased from Invitrogen, Grand Island, N.Y., USA. […]
To study any toxic effect of the peptides, mouse E18 primary hippocampal neurons were treated with the five BDNF peptides individually for up to 5 days at different doses [5 nM, 25 nM, 50 nM (data not shown), 100 nM (0.1 μM), 1000 nM (1 μM), and 10,000 nM (10 μM)]. […] Accordingly, there was no significant change in the viability of cells treated with any of the peptides as evaluated by the lactate dehydrogenase (LDH) assay (see FIG. 2B). […]

## Ac-I-K-R-G-CONH2 [Peptide B-5]
[1]
  expression of 0-III-tubulin (immunocytochemistry): induced an increase
  expression of MAP2 (immunocytochemistry): induced an increase
  expression of NFM (immunocytochemistry): induced an increase
  expression of NeuN (immunocytochemistry): induced an increase

## Ac-S-KKR-CONH2 [Peptide B-3]
[2]; 0.1 μM
  cell death (LDH assay) vs vehicle treated cells: significant reduction in cell death
[2]; 1 μM
  cell death (LDH assay) vs vehicle treated cells: significant reduction in cell death
